Measured values published in patent publication US20110251135A1, “INHIBITORS OF PERITONEAL SEEDING OF CANCER CELLS” (University of Utah Research Foundation, priority 2008, published 2011).

Experiments:
[1] = tested on: colon and pancreatic cancer cells; assay: Apoptosis of colon and pancreatic cancer cells during readhesion; type: cell-based, human; details: not shown
[2] = tested on: transiently suspended HT-29 cells; assay: Apoptosis of transiently suspended cells during readhesion (annexin V assay); type: cell-based, human; details: for apoptosis of readhering HT-29 colon cancer cells: NF-κB inhibitors other than BAY 11-7085
Procedure: HT-29 cells that were either transiently suspended with trypsin-EDTA or adherent for three days, were treated at time zero with DMSO or 10-100 μM BAY 11-7085. The percent of apoptotic cells was determined using the annexin V flow cytometry assay and graphed versus the dose of BAY 11-7085. FIG. 4B are photographs showing DLD-1, FIG. 4C are photographs showing HCT-116, and FIG. 4D are photographs showing HT-29 cells that were transiently suspended in trypsin-EDTA and allowed to readhere to glass coverslips for 1-24 hours. The cells were fixed and immunostained with an NF-κB p65 subunit monoclonal antibody.
The transiently suspended cells were lysed and allowed to bind to DNA oligonucleotides, containing the NF-κB consensus binding site, that were immobilized to 96-well plates. NF-κB protein bound to the oligonucleotides was detected by an antibody to the p65 subunit that only recognized p65 that is bound to DNA. The positive control was HeLa cells that were stimulated with TNFα. A control was performed using excess free NF-κB oligonucleotides (Competitor). […] NF-κB binding activity was determined by the TransAM assay as in FIG. 5A. […] The data shown represent typical results of three separate experiments. […] An immunoblot for COX-2 was performed.
The percentage of apoptotic cells was determined using the annexin V assay. The data points represent the averages of three experiments; bars, +−.SE. E. DLD-1 and F. HT-29 cells were transduced with an adenovirus containing the IκB super-repressor construct. After 3 days, the cells were transiently suspended and allowed to readhere in the presence of subapoptotic concentrations of BAY 11-7085 or DMSO (vehicle) for 8 hours. The data are expressed as fractions of cells surviving compared with the controls (no adenovirus) and were quantitatively determined by staining the remaining adherent cells with crystal violet.
(§1) Single cell suspensions were plated at 100,000 cells per well in 24-well plates in media containing DMSO, BAY 11-7082, BAY 11-7085, or MG-132 for 8-24 hours in an incubator. Alternatively, DMSO, BAY 11-7082, BAY 11-7085, or MG-132 were added to cells that were confluent and adherent for several days. The nonadherent cells were aspirated off with the media and spun for 3 minutes at 2,000 rpm in 15 mL polypropylene tubes. The adherent cells were washed twice with PBS, dispersed in trypsin, and spun down for 3 minutes at 2,000 rpm in 15 mL polypropylene tubes. The nonadherent and adherent cells were resuspended in 1× binding buffer (10 mM HEPES/NaOH, pH 7.4, 140 mM NaCl, and 2.5 mM CaCl2) to a final concentration of 10^6 cells/mL. 100 μL of the cell solution were transferred to a 5 mL culture tube and incubated with 5 μL of annexin V-FITC-conjugated monoclonal antibody (Pharmingen) and 10 μl, of propidium iodide (from a 50 μg/mL stock solution made in PBS) in the dark at 25° C. for 15 minutes. 400 μL of binding buffer was added to each tube and the cells were analyzed by flow cytometry immediately. The percent of apoptosis was determined as the percent of annexin V-positive, propidium iodide-negative cells of the total cells counted.
Various concentrations of BAY 11-7085 were added to HT-29 cells that were transiently suspended in trypsin-PBS for approximately 15 minutes before replating. The transiently suspended cells were quickly allowed to readhere in order to prevent anoikis. Alternatively, BAY 11-7085 was added to adherent HT-29 cell monolayers.

adherent HT-29 cells = assay: Annexin V-FITC apoptosis assay, adherent cells; type: cell-based, human
From the text: FIG. 3 is a group of graphs that show NF-κB inhibitors cause apoptosis of colon cancer cells. […] The data points represent the average percent of annexin V-positive, propidium iodide-negative cells (of the total cells counted) from triplicate experiments. The error bars represent the standard error of the means. […] The results shown are a graphic representation of individual flow cytometry results expressed as the percentage of cells that were annexin V-positive of those that excluded propidium iodide. […] An immunoblot of the lysates for cleaved PARP was performed. Each lane represents equal total protein concentrations. […] The cells were allowed to adhere to plastic dishes for 1 hour after which they were washed gently in PBS and stained with crystal violet. The crystal violet stained cells were solubilized in deoxycholate and the absorbance detected in a spectrophotometer at 590 nm. The adherent cells were expressed as a fraction of the controls. Each data point represents the average of triplicate experiments and the error bars the standard errors of the means.
(§2) The data points represent the means of triplicate experiments and the error bars the standard errors of the means. […] The percent of apoptotic cells was then determined by the annexin V assay. […] The results shown are typical of two separate experiments. […] Immunoblots were performed for c-IAP-2, TRAF-1, TRAF-2, and FLIP. All lanes contain equal total protein.
as §1

HT-29 xenografts = assay: Subcutaneous colon cancer xenograft in athymic mice; type: in vivo, mouse; details: athymic mice; compound alone; cell line not given
Procedure: (§3) DLD-1, HCT-116, and HT-29 cells were cultured for 6 days in soft agar in the presence of DMSO (control), 10 μM BAY 11-7082, or 10 μM BAY 11-7085. The data points represent the means of colony counts per field (20×) performed in 5 different regions of the culture dishes. The data shown represent a typical result of two separate experiments. FIG. 2B and FIG. 2C are graphs that show athymic mice received subcutaneous injections of HT-29 (FIG. B) or HCT-116 (FIG. C) cells, followed by […] of BAY 11-7085 (dark bars) or DMSO (white bars) intraperitoneally twice weekly. The bars represent the 25-75% ranges of the tumor volumes and the horizontal lines in the bars are the medians. Using the Kruskal-Wallace statistical test to compare the median tumor volumes between BAY 11-7085 and DMSO yielded a p-value of 0.005 for HT-29 cells but >0.05 for HCT-116 cells.
HT-29 and HCT-116 cells were harvested in 0.25% trypsin-PBS-EDTA, washed once in media and PBS, and resuspended in PBS at 1 million cells per 200 μL. One million cells were injected either subcutaneously in the backs or intraperitoneally in 5 week old female nu/nu athymic mice (Charles River Labs). For the mice with subcutaneous tumors, the tumors were allowed to establish themselves for 10 days after which they were randomized to BAY 11-7085 or DMSO. For the mice with intraperitoneal tumors, the mice received DMSO or BAY 11-7085 (5 mg/kg) 24 hours before the cancer cells were injected intraperitoneally. […] Subcutaneous tumor sizes were determined by measuring the length and width with calipers. These studies were approved by the University of Utah Institutional Review Board and Institutional Animal Care and Use Committee and performed in the Animal Resource Center. Mice were euthanized when they experienced a greater than 10% loss in body weight or if they appeared ill. Post-mortem examinations included sectioning of kidney, lung, and liver tissues which were stained with hematoxylin and eosin followed by examination for tissue toxicity/damage by an experienced mouse pathologist (E.J.E.) who was blinded to therapy.
HCT-116 and HT-29 cell lines were used to generate subcutaneous tumors in athymic female mice. The mice were subsequently randomized to be treated with vehicle (DMSO) alone or BAY 11-7085 […] twice weekly for 28 days.

HT-29 cells = assay: Soft agar colony formation assay; type: cell-based, human; details: 10 μM for 6 days
Procedure: as §3
(§4) Anchorage-independent cell growth is a hallmark of cancer cells and is a good correlation to tumorigencity in vivo. Therefore, the effects of BAY 11-7082 and BAY 11-7085 were examined on colon cancer cell growth using the soft agar colony formation assay.

HCT-116 cells = assay: Soft agar colony formation assay; type: cell-based, human; details: 10 μM for 6 days
Procedure: as §3, §4

DLD-1 cells = assay: Soft agar colony formation assay; type: cell-based, human; details: 10 μM for 6 days
Procedure: as §3, §4

JNK/SAPK and p38 = details: Pierce et al., J Biol Chem 272:21096-103, 1997; cited from earlier work
NF-κB = NF-κB electrophoretic mobility shift assay (EMSA), nuclear lysates of treated HT-29 cells; type: cell-based, human; details: 10 μM, 3 and 6 hour incubations
[3] = tested on: IκB phosphorylation and TNFα-induced NF-κB activation; details: Pierce et al., J Biol Chem 272:21096-103, 1997; cited from earlier work
[4] = tested on: DLD-1, HCT-116, HT-29 colon cancer cell lines; assay: Cell proliferation assay (crystal violet, 96-well); type: cell-based, human
Procedure: as §2
For the cell proliferation assay, cells were dispersed and plated at 40,000 cells/well in 96-well dishes. At various days in culture, the cells were gently washed twice with 100 μL/well of ice-cold blocking buffer (1% radioimmunoassay grade BSA in PBS) and twice with 100 μL/well of ice-cold PBS. The cells were fixed for 10 min in 100% ice-cold methanol (100 μL/well), then allowed to air-dry. The cells were stained with 100 μL/well of 0.1% crystal violet in H20 for 10 minutes, then washed gently four times with dd H20 and four times with PBS. The plates were then air-dried completely. The stained cells were then solubilized in 1% sodium deoxycholate, and the plates read at 590 nm in a spectrophotometer. The absorption at 590 nm is proportional to the number of attached cells.

Compound: infliximab
- apoptosis of colon and pancreatic cancer cells during readhesion [1]: failed to induced apoptosis
- apoptosis of readhering HT-29 colon cancer cells [2]: failed to induce apoptosis

Compound: Cc1ccc(S(=O)(=O)/C=C/C#N)cc1 [BAY 11-7082, (2E)-3-(tolylsulfonyl)-2-propenenitrile]
- level of apoptosis (annexin V-positive, propidium iodide-negative cells) (adherent HT-29 cells; adherent HT-29, 24 hours, BAY compounds at doses up to 20, MG-132 20 μM): caused an increase in the level of apoptosis
- colon cancer xenograft growth (HT-29 xenografts): inhibit colon cancer xenograft growth
- anchorage-independent proliferation (HT-29 cells): significantly inhibited
- anchorage-independent proliferation (HCT-116 cells): but not HCT-116
- anchorage-independent proliferation (DLD-1 cells): significantly inhibited
- activation of JNK/SAPK and p38 (JNK/SAPK and p38): activate JNK/SAPK and p38
- inhibition of NF-κB activity (EMSA) (NF-κB): more profound inhibition of NF-κB activity occurred with BAY 11-7085 than BAY 11-7082
- IκB phosphorylation and TNFα-induced NF-κB activation [3]: inhibit IκB phosphorylation and TNFα-induced NF-κB activation
- cell proliferation ([4]; 10 μM, cultured up to 8 days): but not BAY 11-7082 greatly inhibited cell proliferation

Compound: cA2: antagonistic and chimeric TNFα monoclonal antibody, inhibits TNFα binding to TNFα receptors
- effect of cA2 pretreatment on BAY 11-7085-induced apoptosis (adherent HT-29 cells; HT-29, 50 μg/mL cA2 for 48 hours, then 20 μM BAY 11-7085 for 24 hours): did not diminish BAY 11-7085-induced apoptosis
- colon cancer cell proliferation ([4]; cA2 at 10 and 50 μg/mL, after several days of treatment): caused a significant inhibition of colon cancer cell proliferation

Compound: S=C(S)N1CCCC1 [PDTC, pyrrolidine dithiocarbamate]
- induction of apoptosis of HT-29 cells during readhesion ([2]; various concentrations, 4 hours, compared with BAY 11-7085): caused apoptosis of HT-29 cells during readhesion

Compound: CC(C)C[C@H](NC(=O)[C@H](Cc1ccccc1)NC(=O)c1cnccn1)B(O)O [bortezomib]
- apoptosis of colon and pancreatic cancer cells during readhesion [1]: failed to induced apoptosis
- apoptosis of readhering HT-29 colon cancer cells [2]: failed to induce apoptosis
